The assay addresses T1, estrus urinary lipocalin protein (EULP).
T1 construct: gene PMP2; native, purified from female rat urine by Sephadex G-50 gel filtration; printed peptides MSNKFL, KFLGTWKLT, KLTSSENFD, NFDEYMKAL, LGTRSLGNL, LAGPTVIIS, ITIRTESGF, GFKNTEISF, FEETTADNR, RKTKSTVTL, KSTVTLAGG, NGNETTIKR, SVVCTRIYE
The experiment in a line: fluorescence binding of 2-naphthol probe. Also on record: species or system Rattus rattus. As to conditions: 10 mM phosphate buffer pH 7.2, room temperature; fluorescent probe.

Take `Oc1ccc2ccccc2c1` [2-naphthol]: the Kd came to 420 ± 60 nM.

By Kd is commonly meant the concentration at which binding is half-saturated. A higher Kd goes with a looser complex.
